{"source": "patent US20060093222A1", "about": "“Data processing, analysis, and visualization system for use with disparate data types” (priority 1999, published 2006)", "origin": "cited, not measured here", "key": {"[1]": {"tested_on": "Bacillus subtilis and Bacillus cereus", "details": "liquid and semi-solid substrates, aerobic and anaerobic"}}}
{"compound": "O=S(O)S(=O)(=O)O", "note": "[metabisulphite]", "values": [{"measurement": "anti-sporulation effect", "setting": "[1]", "value": "effective anti-sporulation agent"}]}
{"compound": "Tissue plasminogen activator [t-PA]", "values": [{"measurement": "additional patients normal or nearly normal 3 months after their stroke", "setting": "stroke patients; for every 100 stroke patients treated with t-PA", "value": "11-13"}, {"measurement": "rate of fatal ICH", "setting": "stroke patients; t-PA therapy, stroke patients", "value": 3, "unit": "%"}, {"measurement": "rate of symptomatic intracerebral hemorrhage (ICH)", "setting": "stroke patients; t-PA therapy, stroke patients", "value": 6, "unit": "%"}]}
